# Experiments:
# Type in all cases: cell-based
# [1] = target: EGFR(D770_N771insSVD) expressing Ba/F3 stable cell line (Homo sapiens, UniProt P00533, DUP768-770, cells depend on it); test: Cellular proliferation (Alamar Blue) assay, EGFR D770_N771insSVD Ba/F3; conditions: 72 hr, read-out: D770 IC50
# Method in brief: (§1)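 Steps: plate 15,000 Ba/F3 cells/well in RPMI/10% FBS; rest 16-18 h, 37 °C; add compound at final 10-0.0005 μM (3-fold series) or DMSO; incubate 72 hr; add Alamar Blue; read after 3 h.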
# [2] = target: EGFR (H773insNPH) expressing Ba/F3 stable cell line (Homo sapiens, UniProt P00533, DUP771-773, cells depend on it); test: Cellular proliferation (Alamar Blue) assay, EGFR H773insNPH Ba/F3; conditions: 72 hr, read-out: NPH IC50
# Experimental: • 1. EGFR(D770_N771insSVD) expressing Ba/F3 stable cell line • 2. EGFR (A767_dupASV) expressing Ba/F3 stable cell line • 3. A431 cells • 4. EGFR (H773insNPH) expressing Ba/F3 stable cell line • 5. HER2 (A775_G776insYVMA) expressing Ba/F3 stable cell line Assay Procedure: • 1. Seed cells at 5000 for A431 and 15,000 cells for Ba/F3 in 100 μL/well in complete media (for A431: DMEM with […] and for Ba/F3 cells: RPMI with 10% FBS) in 96-well tissue culture plate. Leave outer wells without cells for background measurements. Incubate at 37 degree Celsius in […] humidified incubator for 16-18 hours. • 2. Add 0.025 ml of 5× concentration compound dilution or DMSO control. Final compound concentration range is 10-0.0005 μM prepared in 3-fold serial dilutions. Incubate for 72 hr at 37 degree Celsius in […] humidified incubator. • 3. Add 0.0125 ml Alamar Blue™ reagent to each well with multi-channel pipette and tap gently on each side of the plate to mix. Incubate for 3 hours at 37 degree Celsius in 5% CO2 humidified incubator. • 4. […] Data analysis was performed using XLfit 5.5.0.5.
# [3] = test system: A431 cells; test: Cellular proliferation (Alamar Blue) assay, A431; conditions: Homo sapiens, A-431; A431 cells, Alamar Blue, 72 hr; read-out: A431 IC50
# [4] = target: EGFR (A767_dupASV) expressing Ba/F3 stable cell line (Homo sapiens, UniProt P00533, DUP767-769, cells depend on it); test: Cellular proliferation (Alamar Blue) assay, EGFR A767_dupASV Ba/F3; conditions: 72 hr, read-out: A767 IC50
# Method in brief: as §1
# EGFR (H773insNPH) expressing Ba/F3 stable cell line, sequence (P00533 with tags, fused parts or gaps DUP771-773): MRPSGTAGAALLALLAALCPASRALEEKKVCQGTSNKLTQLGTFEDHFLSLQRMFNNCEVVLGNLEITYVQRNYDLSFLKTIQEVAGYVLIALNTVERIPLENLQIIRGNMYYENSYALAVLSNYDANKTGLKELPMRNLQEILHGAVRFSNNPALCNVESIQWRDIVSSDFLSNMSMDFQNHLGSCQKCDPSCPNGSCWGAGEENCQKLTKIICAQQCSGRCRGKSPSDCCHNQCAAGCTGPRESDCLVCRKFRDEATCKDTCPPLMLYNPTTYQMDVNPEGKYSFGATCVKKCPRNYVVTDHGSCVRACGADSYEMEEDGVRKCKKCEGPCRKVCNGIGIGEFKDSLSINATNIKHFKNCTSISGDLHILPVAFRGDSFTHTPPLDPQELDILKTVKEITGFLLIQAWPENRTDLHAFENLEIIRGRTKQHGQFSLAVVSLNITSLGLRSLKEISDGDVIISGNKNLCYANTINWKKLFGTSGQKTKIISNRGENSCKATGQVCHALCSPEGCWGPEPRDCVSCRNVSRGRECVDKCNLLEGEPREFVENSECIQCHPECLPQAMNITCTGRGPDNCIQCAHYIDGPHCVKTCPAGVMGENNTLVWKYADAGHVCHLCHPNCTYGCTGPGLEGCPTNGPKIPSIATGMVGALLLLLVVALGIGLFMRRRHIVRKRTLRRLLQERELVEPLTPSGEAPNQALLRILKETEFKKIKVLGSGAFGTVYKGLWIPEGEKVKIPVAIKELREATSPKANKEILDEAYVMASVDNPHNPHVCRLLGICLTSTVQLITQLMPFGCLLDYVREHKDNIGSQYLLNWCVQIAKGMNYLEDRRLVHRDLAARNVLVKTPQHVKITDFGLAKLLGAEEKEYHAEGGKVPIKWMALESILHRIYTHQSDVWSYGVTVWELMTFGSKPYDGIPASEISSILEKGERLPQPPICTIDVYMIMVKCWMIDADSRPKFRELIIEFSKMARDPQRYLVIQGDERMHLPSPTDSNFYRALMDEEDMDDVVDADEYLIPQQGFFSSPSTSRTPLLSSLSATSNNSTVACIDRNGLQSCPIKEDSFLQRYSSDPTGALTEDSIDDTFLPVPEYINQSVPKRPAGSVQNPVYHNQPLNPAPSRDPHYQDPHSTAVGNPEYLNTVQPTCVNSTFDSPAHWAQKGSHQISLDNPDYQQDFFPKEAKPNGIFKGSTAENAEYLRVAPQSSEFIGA
# EGFR (A767_dupASV) expressing Ba/F3 stable cell line, sequence (P00533 with tags, fused parts or gaps DUP767-769): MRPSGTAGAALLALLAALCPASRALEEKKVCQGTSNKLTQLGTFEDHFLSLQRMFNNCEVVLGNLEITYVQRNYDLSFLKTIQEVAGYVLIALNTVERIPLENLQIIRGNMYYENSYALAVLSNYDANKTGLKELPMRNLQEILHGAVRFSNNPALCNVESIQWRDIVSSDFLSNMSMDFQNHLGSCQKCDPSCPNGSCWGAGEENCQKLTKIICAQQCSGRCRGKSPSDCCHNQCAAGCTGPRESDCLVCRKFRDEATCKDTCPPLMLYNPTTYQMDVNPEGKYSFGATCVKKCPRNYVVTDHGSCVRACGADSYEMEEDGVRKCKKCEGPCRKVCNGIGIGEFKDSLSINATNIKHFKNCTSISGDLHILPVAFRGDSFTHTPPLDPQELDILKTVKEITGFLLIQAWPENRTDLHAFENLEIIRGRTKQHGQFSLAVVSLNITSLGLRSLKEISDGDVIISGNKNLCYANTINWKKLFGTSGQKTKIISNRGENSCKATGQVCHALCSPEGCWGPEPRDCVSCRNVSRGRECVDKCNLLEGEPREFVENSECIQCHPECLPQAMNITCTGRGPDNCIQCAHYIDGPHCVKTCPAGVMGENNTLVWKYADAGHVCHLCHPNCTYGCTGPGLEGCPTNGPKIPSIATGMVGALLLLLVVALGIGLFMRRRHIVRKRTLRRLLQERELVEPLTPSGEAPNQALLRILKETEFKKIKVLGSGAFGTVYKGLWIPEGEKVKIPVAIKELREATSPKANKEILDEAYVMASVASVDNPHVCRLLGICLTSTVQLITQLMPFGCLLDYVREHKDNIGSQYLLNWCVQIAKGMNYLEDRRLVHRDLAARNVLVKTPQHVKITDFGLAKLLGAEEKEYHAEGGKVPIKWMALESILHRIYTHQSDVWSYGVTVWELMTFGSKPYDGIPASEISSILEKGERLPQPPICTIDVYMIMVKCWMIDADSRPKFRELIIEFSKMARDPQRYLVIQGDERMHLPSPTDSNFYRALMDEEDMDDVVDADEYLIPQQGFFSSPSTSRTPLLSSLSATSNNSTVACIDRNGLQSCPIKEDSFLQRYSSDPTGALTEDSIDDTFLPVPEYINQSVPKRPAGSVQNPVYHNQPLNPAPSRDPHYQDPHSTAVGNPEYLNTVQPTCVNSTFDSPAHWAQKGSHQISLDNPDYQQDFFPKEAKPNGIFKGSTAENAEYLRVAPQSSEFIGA
# EGFR(D770_N771insSVD) expressing Ba/F3 stable cell line, sequence (P00533 with tags, fused parts or gaps DUP768-770): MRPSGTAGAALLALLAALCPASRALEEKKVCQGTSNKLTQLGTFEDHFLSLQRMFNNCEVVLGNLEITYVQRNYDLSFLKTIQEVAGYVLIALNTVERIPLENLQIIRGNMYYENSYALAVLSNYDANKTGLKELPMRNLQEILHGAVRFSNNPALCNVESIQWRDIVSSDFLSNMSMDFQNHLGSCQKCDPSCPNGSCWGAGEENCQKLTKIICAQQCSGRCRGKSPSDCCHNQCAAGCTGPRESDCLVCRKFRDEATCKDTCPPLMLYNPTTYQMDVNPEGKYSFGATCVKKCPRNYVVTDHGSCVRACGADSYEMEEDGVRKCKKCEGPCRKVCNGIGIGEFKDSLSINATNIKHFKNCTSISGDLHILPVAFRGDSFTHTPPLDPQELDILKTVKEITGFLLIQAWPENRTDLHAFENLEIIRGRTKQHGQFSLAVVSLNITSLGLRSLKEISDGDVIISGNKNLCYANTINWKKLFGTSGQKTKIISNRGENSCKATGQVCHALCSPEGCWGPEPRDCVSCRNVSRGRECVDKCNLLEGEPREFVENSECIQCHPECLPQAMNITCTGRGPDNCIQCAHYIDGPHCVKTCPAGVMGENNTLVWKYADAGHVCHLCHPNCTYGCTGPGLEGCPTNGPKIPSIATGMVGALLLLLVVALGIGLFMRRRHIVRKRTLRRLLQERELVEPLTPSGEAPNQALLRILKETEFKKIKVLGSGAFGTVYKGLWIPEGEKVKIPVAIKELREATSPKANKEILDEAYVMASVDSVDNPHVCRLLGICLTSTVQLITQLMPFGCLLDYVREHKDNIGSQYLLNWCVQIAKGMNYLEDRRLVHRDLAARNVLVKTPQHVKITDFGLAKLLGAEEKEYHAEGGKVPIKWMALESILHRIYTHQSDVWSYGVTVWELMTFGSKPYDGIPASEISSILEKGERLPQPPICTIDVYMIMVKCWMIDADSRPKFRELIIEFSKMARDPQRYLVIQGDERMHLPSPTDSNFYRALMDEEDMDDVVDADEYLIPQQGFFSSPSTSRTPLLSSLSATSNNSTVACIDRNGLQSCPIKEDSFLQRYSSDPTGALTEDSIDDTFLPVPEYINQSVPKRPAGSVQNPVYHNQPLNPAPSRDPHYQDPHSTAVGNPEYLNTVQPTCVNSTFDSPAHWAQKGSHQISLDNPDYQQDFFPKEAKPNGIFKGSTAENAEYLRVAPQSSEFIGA
GI50 [1],GI50 [2],IC50 [3],GI50 [4],SMILES
1.03 µM,0.796 µM,3.92 µM,0.93 µM,"C=CC(=O)Nc1ccc(F)c(Nc2nc(Nc3cnn(C4CCC(O)CC4)c3)ncc2Cl)c1 (stereo not drawn) [Compound 1, N-(3-((5-chloro-2-((1-(4-hydroxycyclohexyl)-1H-pyrazol-4-yl)amino)pyrimidin-4-yl)amino)-4-fluorophenyl)acrylamide]"
7.95 µM,4.74 µM,7.1 µM,3 µM,"C=CC(=O)Nc1ccc(F)c(Nc2nc(Nc3ccc(OC)nc3)ncc2Cl)c1 [Compound 22, N-(3-((5-chloro-2-((6-methoxypyridin-3-yl)amino)pyrimidin-4-yl)amino)-4-fluorophenyl)acrylamide]"
> 10 µM,4.47 µM,> 10 µM,9.92 µM,"C=C(F)C(=O)Nc1ccc(F)c(Nc2nc(Nc3cnn(C)c3)ncc2Cl)c1 [Compound 23, N-(3-((5-chloro-2-((1-methyl-1H-pyrazol-4-yl)amino)pyrimidin-4-yl)amino)-4-fluorophenyl)-2-fluoroacrylamide]"
> 10 µM,4.13 µM,> 10 µM,> 10 µM,C=C(F)C(=O)NC1CCCC(Nc2nc(Nc3cnn(C)c3)ncc2Cl)C1 (stereo not drawn) [Compound 24]
> 10 µM,> 10 µM,> 10 µM,> 10 µM,"C=C(F)C(=O)N1CCCC(Nc2nc(Nc3cnn(C)c3)ncc2Cl)C1 (stereo not drawn) [Compound 25, 1-(3-((5-chloro-2-((1-methyl-1H-pyrazol-4-yl)amino)pyrimidin-4-yl)amino)piperidin-1-yl)-2-fluoroprop-2-en-1-one]"
4.86 µM,2.09 µM,7.41 µM,2.45 µM,"C=CC(=O)Nc1ccc(F)c(Nc2nc(Nc3cnn(CC(C)(C)O)c3)ncc2Cl)c1 [Compound 26, N-(3-((5-chloro-2-((1-(2-hydroxy-2-methylpropyl)-1H-pyrazol-4-yl)amino)pyrimidin-4-yl)amino)-4-fluorophenyl)acrylamide]"
3.13 µM,3.01 µM,> 10 µM,2.24 µM,"C=CC(=O)Nc1cccc(Nc2nc(Nc3cnn(C)c3)ncc2NC(=O)c2ccccc2)c1 [Compound 28, N-(4-((3-acrylamidophenyl)amino)-2-((1-methyl-1H-pyrazol-4-yl)amino)pyrimidin-5-yl)benzamide]"
9.52 µM,> 10 µM,> 10 µM,9.31 µM,"C=CC(=O)Nc1cccc(Nc2nc(Nc3cnn(C)c3)ncc2C(=O)NC(C)c2ccccc2)c1 (stereo not drawn) [Compound 34, 4-((3-acrylamidophenyl)amino)-2-((1-methyl-1H-pyrazol-4-yl)amino)-N-(1-phenylethyl)pyrimidine-5-carboxamide]"
3.26 µM,> 10 µM,6.56 µM,0.982 µM,"COc1cc(N2CCCCC2)ccc1Nc1ncc(C(=O)N(C)c2ccccc2)c(Nc2cccc(NC(=O)/C=C/CN(C)C)c2)n1 [Compound 52, (E)-4-((3-(4-(dimethylamino)but-2-enamido)phenyl)amino)-2-((2-methoxy-4-(piperidin-1-yl)phenyl)amino)-N-methyl-N-phenylpyrimidine-5-carboxamide]"
,0.03 µM,0.056 µM,0.013 µM,"C=CC(=O)Nc1ccc(F)c(Nc2nc(Nc3cnn(C)c3)ncc2-c2ccc(Cl)nc2)c1 [Compound 101, N-(3-((5-(6-chloropyridin-3-yl)-2-((1-methyl-1H-pyrazol-4-yl)amino)pyrimidin-4-yl)amino)-4-fluorophenyl)acrylamide]"
0.024 µM,0.03 µM,,0.016 µM,"C=CC(=O)Nc1ccc(F)c(Nc2nc(Nc3cnn(C)c3)ncc2-c2cnc(C(F)(F)F)nc2)c1 [Compound 123, N-(4-fluoro-3-((2-((1-methyl-1H-pyrazol-4-yl)amino)-2′-(trifluoromethyl)-[5,5′-bipyrimidin]-4-yl)amino)phenyl)acrylamide]"
